Assay results taken from ChEMBL document CHEMBL1201862, “PubChem BioAssay data set” (2004).
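Interpolation was linear, between the two tested concentrations surrounding the appropriate level; five concentrations were tested over 48 hours in 96-well plates. GI50 marks 50% less growth.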 The source made the active and inactive calls. Cut-off read from the data, not from the text of the source: active = GI50 up to about 1.1 µM and inactive = higher.

Assays:
Assay in all cases: NCI anticancer screen, dose series, 48 h
HCC 2998 = tested on: HCC 2998
HL-60 = tested on: HL-60
HOP-92 = tested on: HOP-92
IGROV-1 = tested on: IGROV-1
K562 = tested on: K562
KM12 = tested on: KM12
LOX IMVI = tested on: LOX IMVI
MCF7 = tested on: MCF7
MDA-MB-231 = tested on: MDA-MB-231
MOLT-4 = tested on: MOLT-4
NCI/ADR-RES = tested on: NCI/ADR-RES
OVCAR-3 = tested on: OVCAR-3
PC-3 = tested on: PC-3
RPMI-8226 = tested on: RPMI-8226
SNB-75 = tested on: SNB-75
SW-620 = tested on: SW-620
TK-10 = tested on: TK-10
UACC-257 = tested on: UACC-257

Row | SMILES | GI50 (HCC 2998) | GI50 (HL-60) | GI50 (HOP-92) | GI50 (IGROV-1) | GI50 (K562) | GI50 (KM12) | GI50 (LOX IMVI) | GI50 (MCF7) | GI50 (MDA-MB-231) | GI50 (MOLT-4) | GI50 (NCI/ADR-RES) | GI50 (OVCAR-3) | GI50 (PC-3) | GI50 (RPMI-8226) | GI50 (SNB-75) | GI50 (SW-620) | GI50 (TK-10) | GI50 (UACC-257)
1 | O=C(CSc1nc2ccc(I)cc2c(=O)n1Cc1ccccc1)NNC(=O)c1ccccc1 | 33.8 µM (inactive) | > 100 µM (inactive) | 8.24 µM (inactive) | 9.27 µM (inactive) | 2.2 µM (inactive) | 17.5 µM (inactive) | 22.5 µM (inactive) | 9.82 µM (inactive) | 10.5 µM (inactive) | 11.4 µM (inactive) | 13.6 µM (inactive) | 19 µM (inactive) | 10.7 µM (inactive) | 3.52 µM (inactive) | 2.38 µM (inactive) | 36.1 µM (inactive) | 11.8 µM (inactive) | 18 µM (inactive)
2 | Nc1cccc(C2CCCc3c2[nH]c2ccccc32)c1 (centres undefined) | 22.6 µM (inactive) | 19.5 µM (inactive) | 16.9 µM (inactive) | 17.3 µM (inactive) | 13.6 µM (inactive) | 17.5 µM (inactive) | 12.4 µM (inactive) | 21.8 µM (inactive) | 15.8 µM (inactive) | 20.6 µM (inactive) | 17.7 µM (inactive) | 26.7 µM (inactive) | 16.1 µM (inactive) | 19.1 µM (inactive) | 11.9 µM (inactive) | 17.4 µM (inactive) | 32.4 µM (inactive) | 23.9 µM (inactive)
3 | Cc1ccc(C(=O)N/N=C(\N=N\c2cccc(Cl)c2)c2ccc(N(CCC#N)CCC#N)cc2C)cc1 | > 100 µM (inactive) | 56.9 µM (inactive) | > 100 µM (inactive) | > 100 µM (inactive) | > 100 µM (inactive) | > 100 µM (inactive) | > 100 µM (inactive) | > 100 µM (inactive) | > 100 µM (inactive) | 41.5 µM (inactive) | > 100 µM (inactive) | 93.3 µM (inactive) | > 100 µM (inactive) | 91.8 µM (inactive) | 75.9 µM (inactive) | > 100 µM (inactive) | > 100 µM (inactive) | > 100 µM (inactive)
4 | [N-]=[N+]=Nc1ccc2c(c1)Sc1ccccc1N2CCCCN1CCN(C(=O)CCNC(=O)Cc2ccc(C(=O)c3ccccc3)cc2)CC1 | 2.53 µM (inactive) | 2.54 µM (inactive) | 6.71 µM (inactive) | 6.1 µM (inactive) | 1.68 µM (inactive) | 3.31 µM (inactive) | 2.23 µM (inactive) | 2.33 µM (inactive) | 4.74 µM (inactive) | 1.54 µM (inactive) | 4.05 µM (inactive) | 4.5 µM (inactive) | 3.1 µM (inactive) | 1.58 µM (inactive) | 5.21 µM (inactive) | 9.66 µM (inactive) | 13.2 µM (inactive) | 4.05 µM (inactive)
5 | O=C1CC(Nc2ccccc2)c2c(Cl)sc(Cl)c21 (centres undefined) | 1.76 µM (inactive) | 0.199 µM (active) | 1.41 µM (inactive) | 1.61 µM (inactive) | 1.12 µM (active) | 0.483 µM (active) | 0.39 µM (active) | 1.47 µM (inactive) | 1.92 µM (inactive) | 0.484 µM (active) | 2.42 µM (inactive) | 1.79 µM (inactive) | 1.49 µM (inactive) | < 0.01 µM (active) | 2.31 µM (inactive) | 0.369 µM (active) | 1.81 µM (inactive) | 1.85 µM (inactive)
6 | O=C(COc1ccc(OCC(=O)N2C(=O)CN(c3ccccc3)C2=S)cc1)N1C(=O)CN(c2ccccc2)C1=S | > 58.5 µM (inactive) | > 100 µM (inactive) | > 53.2 µM (inactive) | > 25 µM (inactive) | > 100 µM (inactive) | > 51.5 µM (inactive) | > 25 µM (inactive) | > 54.3 µM (inactive) | > 50.1 µM (inactive) | > 25 µM (inactive) | > 55.7 µM (inactive) | 49.3 µM (inactive) | > 25 µM (inactive) | > 100 µM (inactive) | > 25 µM (inactive) | > 100 µM (inactive) | > 54.7 µM (inactive) | > 54.7 µM (inactive)
7 | COC(=O)/C=C\C(C#N)(C#N)/N=C/c1ccccc1 | 19.4 µM (inactive) | 2.25 µM (inactive) | 1.55 µM (inactive) | 12.9 µM (inactive) | 3.37 µM (inactive) | 17.5 µM (inactive) | 2.32 µM (inactive) | 2.09 µM (inactive) | 15.6 µM (inactive) | 0.953 µM (active) | 2.88 µM (inactive) | 2.11 µM (inactive) | 5.94 µM (inactive) | 0.573 µM (active) | 6.35 µM (inactive) | 1.46 µM (inactive) | 2.25 µM (inactive) | 5.36 µM (inactive)
8 | COc1cc2cc3c4cc(OC)c(OC)cc4cc[n+]3c(C)c2cc1OC [CORALYNE] | 42.7 µM (inactive) | > 100 µM (inactive) | > 100 µM (inactive) | 37.3 µM (inactive) | 91.4 µM (inactive) | 88.7 µM (inactive) | > 100 µM (inactive) | > 100 µM (inactive) | > 100 µM (inactive) | > 100 µM (inactive) | > 100 µM (inactive) | > 100 µM (inactive) | > 100 µM (inactive) | > 100 µM (inactive) | 10.2 µM (inactive) | 58.7 µM (inactive) | > 100 µM (inactive) | 35.4 µM (inactive)
